Data on 24 molecules can be found in US10669252B2, “Benzazepine derivative, preparation method, pharmaceutical composition and use thereof” (SHANGHAI DE NOVO PHARMATECH CO., LTD., priority 2016, dated 2020).

One may read the EC50 as the concentration needed to bring the measured effect to its halfway point. Low readings indicate an effect from little substance, high ones a need for much substance.

Some results are limits rather than exact numbers.

The target of one test is T1, TLR8 (Homo sapiens, UniProt Q9NR97).
T1 construct: host or cells: HEK293 (HEK-BLUE-hTLR8)
T1 sequence (Q9NR97 27-1041): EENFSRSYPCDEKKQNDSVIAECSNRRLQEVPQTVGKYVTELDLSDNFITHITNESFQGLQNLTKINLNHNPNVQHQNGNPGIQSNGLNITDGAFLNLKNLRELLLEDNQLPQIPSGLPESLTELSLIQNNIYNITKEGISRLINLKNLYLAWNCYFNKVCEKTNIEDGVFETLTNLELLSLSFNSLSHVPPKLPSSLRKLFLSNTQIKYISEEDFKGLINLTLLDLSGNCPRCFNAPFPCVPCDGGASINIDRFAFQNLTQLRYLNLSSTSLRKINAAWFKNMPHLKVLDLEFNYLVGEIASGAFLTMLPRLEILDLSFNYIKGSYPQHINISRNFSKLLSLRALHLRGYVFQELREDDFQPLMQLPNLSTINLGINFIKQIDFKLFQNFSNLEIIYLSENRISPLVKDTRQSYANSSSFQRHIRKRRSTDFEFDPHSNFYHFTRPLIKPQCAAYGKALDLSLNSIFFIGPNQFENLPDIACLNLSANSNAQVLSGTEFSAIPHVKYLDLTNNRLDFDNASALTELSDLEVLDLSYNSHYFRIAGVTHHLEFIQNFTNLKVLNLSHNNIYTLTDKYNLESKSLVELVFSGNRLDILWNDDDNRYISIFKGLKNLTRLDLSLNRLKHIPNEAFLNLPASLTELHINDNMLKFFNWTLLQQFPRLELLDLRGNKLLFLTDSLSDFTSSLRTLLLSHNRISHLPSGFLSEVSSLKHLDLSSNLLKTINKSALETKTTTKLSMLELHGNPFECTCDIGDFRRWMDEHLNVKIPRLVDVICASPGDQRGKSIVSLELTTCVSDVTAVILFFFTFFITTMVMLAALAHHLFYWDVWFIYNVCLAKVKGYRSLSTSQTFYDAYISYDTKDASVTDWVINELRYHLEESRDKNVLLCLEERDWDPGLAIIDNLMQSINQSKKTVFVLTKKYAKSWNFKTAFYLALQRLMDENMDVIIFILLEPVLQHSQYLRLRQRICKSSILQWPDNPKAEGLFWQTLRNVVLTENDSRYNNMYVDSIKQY
Put plainly: TLR8 cell based assay (HEK-BLUE-hTLR8, SEAP reporter linked to NF-κB activation). Particulars: HEK-BLUE-hTLR8 cells, 24 h treatment, SEAP/QUANTI-Blue readout. As to the method:
In this assay, the bioactivity of compound of formula Iw as measured using a cell based assay. The assay was performed in human embryonic kidney cells (HEK293) expressing TLR8 or other TLR family members such as TLR4, TLR7 and TLR9 (for selectivity screens). The activity of specific TLR agonists was assessed using the secretory embryonic alkaline phosphatase (SEAP) reporter gene that is linked to NF-κB activation in response to TLR stimulation. The SEAP activity was measured using the Quanti-Blue substrate (InvivoGen) after TLR agonist treatment.
The detailed experimental method is as follow:
HEK-BLUE-hTLR8 cell line was purchased from InvivoGen. The cells were cultured in Dulbecco's Modified Eagle's Media containing 4.5 g/L […] (Sigma-Aldrich) and 10% FBS. The cells were cultured at 37° C., 95% humidity and 5% CO2.
Test concentrations of the compounds ranged from 0.5 nM to 15 μM with 10 points. A known TLR8 agonist was added as positive control and 1 μl of DMSO was added as negative control.
The cells were prepared as follows: The cells were removed from the incubator and growth medium was discarded. The cells were gently rinsed with pre-warmed 10 ml PBS for a T-150 flask. 12 ml pre-warmed growth medium was added, and the cells were detached by tapping the flask. Cell clumps were dissociated by gently pipetting up and down. The cells were counted. Single cell suspension was prepared at 200,000 cells per ml in growth medium and 200 μl of the cell suspension (40,000 cells per well) were immediately added to each well of the plate. The final DMSO concentration of each well was 0.5%.
The cells were cultured and treated with the compounds at 37° C., 5% CO2 for 24 h.
20 μL of the supernatant of each well were added to 180 μL of QUANTI-Blue, and the plates were incubated at 37° C. for 1.5 hour. Optical density was measured using a spectrophotometer at 650 nm (OD data). Activivation was calculated by using the equation below: Activivation %=(Compound OD mean value−DMSO OD mean value)/(positive control OD mean value−DMSO OD mean value)×100
The data were analyzed using the GraphPad to get EC50 values and fitting dose response curves of the compounds.
On to `CCCN(CCC)C(=O)C1=Cc2ccc(-c3ccc4c(=O)n(Cc5ncnn5C)ccc4c3)cc2N=C(N)C1` [Compound 1-2-41], for which the EC50 is under 100 nM.
`CCCN(CCC)C(=O)C1=Cc2ccc(-c3ccc4c(=O)n(CC)c(C)cc4c3)cc2N=C(N)C1` [Compound 1-2-2] came in with a half-maximal effective concentration (EC50) of 100 to 1000 nM.
The molecule `CCCN(CCC)C(=O)C1=Cc2ccc(-c3ccc4c(=S)n(Cc5cnccn5)ncc4c3)cc2N=C(N)C1` [Compound 1-14-6] returned an EC50 of under 100 nM.
`CCCN(CCC)C(=O)C1=Cc2ccc(-c3ccc4c(=O)n(Cc5ccccc5)ncc4c3)cc2N=C(N)C1` [Compound 1-8-19]: the EC50 fell in the range of 100 to 1000 nM.
Molecule `CCCN(CCC)C(=O)C1=Cc2ccc(-c3ccc4c(=S)n(Cc5cnccn5)ccc4c3)cc2N=C(N)C1` [Compound 1-14-5] returned a 50% effective concentration (EC50) of under 100 nM.
Take `CCCN(CCC)C(=O)C1=Cc2ccc(-c3ccc4c(=O)n(CC(=O)N5CCCC5)ccc4c3)cc2N=C(N)C1` [Compound 1-2-26]: the EC50 was under 100 nM.
Molecule `CCCN(CCC)C(=O)C1=Cc2ccc(-c3ccc4c(=O)n(Cc5nnn[nH]5)ccc4c3)cc2N=C(N)C1` [Compound 1-2-38] returned an EC50 of 1000 to 10000 nM.
`CCCN(CCC)C(=O)C1=Cc2ccc(-c3ccc4c(=O)n(CC(=O)NC)cnc4c3)cc2N=C(N)C1` [Compound 1-7-3] returned an EC50 of under 100 nM.
Consider `CCCN(CCC)C(=O)C1=Cc2ccc(-c3ccc4c(=O)n(CC[S+](C)[O-])ncc4c3)cc2N=C(N)C1` (stereo not drawn) [Compound 1-8-11], for which the EC50 was under 100 nM.
`CCCN(CCC)C(=O)C1=Cc2ccc(-c3ccc4c(=O)n(Cc5nccs5)ncc4c3)cc2N=C(N)C1` [Compound 1-8-10] gave an EC50 of under 100 nM.
Take `CCCN(CCC)C(=O)C1=Cc2c(Cl)cc(-c3ccc4c(=O)n(Cc5ncccn5)ncc4c3)cc2N=C(N)C1` [Compound 2-3-1]: the EC50 is under 100 nM.
As for `CCCN(CCC)C(=O)C1=Cc2ccc(-c3ccc4c(=O)n(CCCS(C)(=O)=O)ncc4c3)cc2N=C(N)C1` [Compound 1-8-6], the EC50 is under 100 nM.
On the same count and under the same terms, with `CCCN(CCC)C(=O)C1=Cc2ccc(-c3ccc4c(=O)n(CCn5ccnc5)ccc4c3)cc2N=C(N)C1` [Compound 1-2-37] the figure was under 100 nM.
As for `CCCN(CCC)C(=O)C1=Cc2c(F)cc(-c3ccc4c(=O)n(CC(=O)NC)cnc4c3)cc2N=C(N)C1` [Compound 1-10-8], the 50% effective concentration (EC50) was under 100 nM.
In turn, `CCCN(CCC)C(=O)C1=Cc2c(F)cc(-c3ccc4c(=O)n(CC(=O)NC)c(=O)n(C)c4c3)cc2N=C(N)C1` [Compound 1-10-5] returned an EC50 of under 100 nM.
`CCCN(CCC)C(=O)C1=Cc2ccc(-c3ccc4c(=O)n(CCCO)ccc4c3)cc2N=C(N)C1` [Compound 1-2-7] gave an EC50 of 100 to 1000 nM.
In the case of `CCCN(CCC)C(=O)C1=Cc2ccc(-c3ccc4c(=S)n(CCS(C)(=O)=O)ncc4c3)cc2N=C(N)C1` [Compound 1-14-2], the EC50 is under 100 nM.
Consider `CCCN(CCC)C(=O)C1=Cc2ccc(-c3cc4c(=O)n(CC)ccc4n3C)cc2N=C(N)C1` [Compound 1-5-1], for which the EC50 was 1000 to 10000 nM.
With `CCCN(CCC)C(=O)C1=Cc2ccc(-c3ccc4c(=O)n(CCP(C)(=O)OCC)ncc4c3)cc2N=C(N)C1` (stereo not drawn) [Compound 1-8-18], the EC50 is under 100 nM.
In turn, `CCCN(CCC)C(=O)C1=Cc2c(cc(-c3ccc4c(=O)n(CCS(C)(=O)=O)ncc4c3)cc2OC)N=C(N)C1` [Compound 2-2-1] had an EC50 of 100 to 1000 nM.
`CCCN(CCC)C(=O)C1=Cc2ccc(-c3ccc4c(=O)n(CC(=O)NCC)ccc4c3)cc2N=C(N)C1` [Compound 1-2-25] registered an EC50 of under 100 nM.
Molecule `CCCN(CCC)C(=O)C1=Cc2c(F)cc(-c3ccc4c(=O)n(CC(=O)NCC)ccc4c3)cc2N=C(N)C1` [Compound 1-10-7] had an EC50 of under 100 nM.
Still for that read-out and setting: with `CCCN(CCC)C(=O)C1=Cc2ccc(-c3ccc4c(=O)n(CCNS(C)(=O)=O)ncc4c3)cc2N=C(N)C1` [Compound 1-8-8] the figure was under 100 nM.
The molecule `CCCN(CCC)C(=O)C1=Cc2ccc(-c3ccc4c(=O)n(CC(=O)N(C)C)ccc4c3)cc2N=C(N)C1` [Compound 1-2-24] registered an EC50 of under 100 nM.

The test is the same for the next values; noted with them: HEK-BLUE-hTLR8 cells; bound stated.
With `CCCN(CCC)C(=O)C1=Cc2ccc(-c3ccc4c(=O)n(Cc5ncnn5C)ccc4c3)cc2N=C(N)C1` [Compound 1-2-41], the EC50 was under 10 nM.
Regarding `CCCN(CCC)C(=O)C1=Cc2ccc(-c3ccc4c(=O)n(CCCS(C)(=O)=O)ncc4c3)cc2N=C(N)C1` [Compound 1-8-6], the EC50 is under 10 nM.
As for `CCCN(CCC)C(=O)C1=Cc2ccc(-c3ccc4c(=S)n(CCS(C)(=O)=O)ncc4c3)cc2N=C(N)C1` [Compound 1-14-2], the EC50 is under 10 nM.
